We go through one substance from US7803377B2, “Anti-DLL4 antibodies and methods using same” (Genentech, Inc., priority 2006, dated 2010).

Assay [1] has as its system human ovarian cancer SK-OV-3 X1 cells. Briefly: Tumor model SK-OV-3X1. The assay is classed as in vivo, mouse. The settings on record: 5 mg/kg, IP, twice weekly after establishment of the tumors. How it is done:
(§1) Tumor models. Beige nude female mice of 8- to 10-week-old were used. To obtain subcutaneous tumors, mice were injected with 0.1 ml cell suspension containing 50% matrigel (BD Bioscience) into the right posterior flank. 5×10^6 human colon cancer HM7 cells, 10×10^6 human colon carcinoma Colo205 cells, 10×10^6 human lung carcinoma Calu6 cells, 10×10^6 human lung carcinoma MV-522 cells, 10×10^6 mouse leukemia WEHI-3 cells, 10×10^6 mouse lymphoma EL4 cells, 10×10^6 human ovarian cancer SK-OV-3 X1 cells, 10×06 mouse lung cancer LL2 cells, 10×10^6 leukemia/lymphoma EL4 cells, or 10×10^6 non-small lung cancer H1299 cells were injected into each mouse. For human melanoma MDA-MB-435 model, mice were injected into the mammary fat pad with 0.1 ml cell (5×10^6) suspension containing 50% matrigel. […] For the following tumor models, each test mouse received a subcutaneous tumor fragment (1 mm^3) implanted in the right flank: non-small lung cancer SKMES-1, human breast cancer MX-1, human colorectal cancer SW620 and human adenocarcinoma LS174T. The tumor growth was quantitated by caliper measurements. Tumor volume (mm^3) was determined by measuring the length (l) and width (w) and calculating the volume (V=lw2/2). 10 to 15 animals were included in each group. Statistical comparison of treatment groups was performed using two-tailed Student's t-test. […]

Assay [2] has as its system SK-OV-3X1, LL2, EL4, H11299, SKMES-1, MX-1, SW620 and LS174T models. Briefly: Tumor models, combination of YW26.82 with anti-VEGF where tested. The settings on record: YW26.82 5 mg/kg and anti-VEGF 5 mg/kg, IP, twice weekly; models where the combination was tested. The assay is classed as in vivo, mouse. How it is done:
as §1

The target in another assay is T1, DLL1 (Homo sapiens, UniProt O00548).
T1 sequence (O00548 18-723): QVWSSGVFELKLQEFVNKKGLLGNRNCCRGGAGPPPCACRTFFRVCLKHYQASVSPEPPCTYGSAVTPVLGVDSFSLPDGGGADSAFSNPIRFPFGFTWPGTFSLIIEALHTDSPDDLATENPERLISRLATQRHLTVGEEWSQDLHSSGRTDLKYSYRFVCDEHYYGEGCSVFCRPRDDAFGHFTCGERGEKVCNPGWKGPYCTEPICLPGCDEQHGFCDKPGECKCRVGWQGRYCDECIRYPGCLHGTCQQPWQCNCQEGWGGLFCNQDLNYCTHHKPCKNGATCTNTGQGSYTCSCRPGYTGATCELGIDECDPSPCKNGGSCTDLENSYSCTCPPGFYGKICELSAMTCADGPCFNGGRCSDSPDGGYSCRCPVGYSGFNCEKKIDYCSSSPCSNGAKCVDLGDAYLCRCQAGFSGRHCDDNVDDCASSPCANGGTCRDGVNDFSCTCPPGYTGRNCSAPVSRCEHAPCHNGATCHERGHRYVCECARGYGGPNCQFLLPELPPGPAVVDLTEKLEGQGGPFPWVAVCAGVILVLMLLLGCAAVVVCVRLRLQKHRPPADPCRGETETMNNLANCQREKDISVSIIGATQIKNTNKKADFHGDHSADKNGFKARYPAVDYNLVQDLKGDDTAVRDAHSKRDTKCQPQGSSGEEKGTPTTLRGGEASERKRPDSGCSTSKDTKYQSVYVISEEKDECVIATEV
Briefly: FACS analysis of transiently transfected 293 cells. The assay is classed as binding. Set-up: transiently transfected with vector, full length DLL4, Jag1 or DLL1; expressed in transfected cells; host or cells: 293 cells, transient. The conditions noted are these: DLL1 transfected 293 cells; antibody 2 μg/ml. The source says:
Expression of Jag1 and DLL1 was confirmed by the binding of recombinant rat Notch1-Fc (rrNotch1-Fc, middle panel) and recombinant rat Notch2-Fc (rrNotch2-Fc, bottom panel), respectively.
(Flow cytometry measures light scatter and fluorescence of single cells or particles in a stream.)

“YW26.82: affinity matured anti-DLL4 monoclonal antibody; HVR-H1/H2/H3 SEQ ID NO:1, 8, 9; HVR-L1/L2/L3 SEQ ID NO:10, 11, 18”: the “tumor growth, single agent” value in assay [1] was “inhibited tumor growth alone”. For the same substance, in assay [2], the “efficacy in combination with anti-VEGF” value was “enhanced efficacy”. For the same substance, the “binding by FACS” value in the assay with DLL1 is “Significant binding was not detected”.
